Measured values published in publication PMC10788923 (Journal of Medicinal Chemistry, 2023).

What was measured:
[1] = Mouse liver microsome stability; type: in vitro ADME; conditions: 0.5 mg protein/mL, 37 °C
[2] = In vivo pharmacokinetic study, oral dosing; parameters: species or system male C57BL/6J mice
[3] = mouse, liver microsomes, read-out: MLM t1/2
[4] = male, C57BL/6J, mouse plasma, PO 10 mg/kg, second number = SD

| Structure (SMILES) | half-life at 1 h, 1 µM [1, 3] [min] | half-life ([2]; male, C57BL/6J, plasma, mouse, oral dosing 10 mg/kg) [min] | Cmax at 24 h ([2]; male, C57BL/6J, mouse plasma, PO 10 mg/kg) [nM] | Tmax at 24 h [2, 4] [min] | half-life at 24 h [2, 4] [min] | MRT inf at 24 h ([2]; male, C57BL/6J, mouse plasma, PO 10 mg/kg, second number = SD, read-out: MRT0-inf) [min] | oral bioavailability (in words) ([2]; mouse, oral dosing 10 mg/kg) | MLM t1/2 ([1]; mouse liver microsomes, 1 μM) [min] | half-life at 1 μM [1, 3] [min] |
| --- | --- | --- | --- | --- | --- | --- | --- | --- | --- |
| [O-][n+]1cccc(CCOc2ccc(Cl)c(C3CC3)c2)c1 [Compound 41, 3-(2-(4-Chloro-3-cyclopropylphenoxy)ethyl)pyridine 1-oxide] | 7.2 | – | – | – | – | – | – | – | – |
| [O-][n+]1cc(O)cc(CCCc2ccc(Cl)c(C(F)(F)F)c2)c1 [Compound 69, 3-(3-(4-Chloro-3-(trifluoromethyl)phenyl)propyl)-5-hydroxypyridine 1-oxide] | – | 53 | 310 | 25 | 53.3 | 81 | orally bioavailable | 104.7 | 105 |
| O=c1cccc(CCOc2ccc(Cl)cc2)[nH]1 [Compound 60, 6-(2-(4-Chlorophenoxy)ethyl)pyridin-2-ol] | 11.7 | – | – | – | – | – | – | – | – |
